The test system of the test is β-catenin-TCF-mediated reporter transcription activity in Colo 205 cells. Description: Colo 205 reporter assay (TCF/LEF luciferase). The class given is cell-based. The settings on record: five hours after addition of compound. In outline: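 Luciferase signal from a TCF/LEF-driven reporter, stably integrated in Colo 205 colon cancer cells, was measured 5 h after compound addition.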

The mark [1] stands for this setting: Homo sapiens, COLO 205, 5 h, Colo 205 TCF/LEF luciferase reporter, read-out: TCF reporter Colo205 IC50.
Setting [2] is: Homo sapiens, COLO 205, 5 h, Colo 205 cells with stably transfected TCF/LEF luciferase reporter, read-out: TCF reporter Colo205.

The structures appear in SMILES notation. Where two headings read alike, the source gives them in different places.

The source of these data is patent US20230312587A1, “PTERIDINONE COMPOUNDS AND USES THEREOF” (Vertex Pharmaceutical Incorporated, priority 2018, published 2023).

As for `Cc1nc(N[C@H]2C[C@H](Oc3ccc(OC(F)F)nc3)C2)nc2c1NC(=O)[C@H](C)N2C` [Compound 361, (7S)-2-((trans-3-((6-(difluoromethoxy)pyridin-3-yl)oxy)cyclobutyl)amino)-4,7,8-trimethyl-7,8-dihydropteridin-6(5H)-one], under setting [1], the IC50 was less than 0.3 µM.
For the molecule `Cc1nc(N[C@H]2C[C@H](Oc3ccc(OC(F)F)nc3)C2)nc2c1N(C)C(=O)[C@H](C)N2C` [Compound 362, (7S)-2-((trans-3-((6-(difluoromethoxy)pyridin-3-yl)oxy)cyclobutyl)amino)-4,5,7,8-tetramethyl-7,8-dihydropteridin-6(5H)-one], the IC50 under setting [1] was 0.3 to 1 µM.
The same measure, in the same setting: to `Cc1nc(N[C@H]2C[C@@H](COc3cncc(C(F)(F)F)c3)C2)nc2c1NC(=O)[C@H](C)N2C` [Compound 363, (7S)-4,7,8-trimethyl-2-((cis-3-(((5-(trifluoromethyl)pyridin-3-yl)oxy)methyl)cyclobutyl)amino)-7,8-dihydropteridin-6(5H)-one] belongs less than 0.3 µM.
For the molecule `Cc1nc(N[C@H]2C[C@@H](COc3ccc(C(F)(F)F)nc3)C2)nc2c1NC(=O)[C@H](C)N2C` [Compound 364, (7S)-4,7,8-trimethyl-2-((cis-3-(((6-(trifluoromethyl)pyridin-3-yl)oxy)methyl)cyclobutyl)amino)-7,8-dihydropteridin-6(5H)-one], under setting [1], the IC50 is less than 0.3 µM.
Still for that read-out and setting: to `Cc1cc(C(F)(F)F)cc(OC[C@H]2C[C@@H](Nc3nc(C)c4c(n3)N(C)[C@@H](C)C(=O)N4)C2)n1` [Compound 365, (7S)-4,7,8-trimethyl-2-((cis-3-(((6-methyl-4-(trifluoromethyl)pyridin-2-yl)oxy)methyl)cyclobutyl)amino)-7,8-dihydropteridin-6(5H)-one] belongs less than 0.3 µM; to `Cc1nc(N[C@H]2C[C@@H](COc3cncc(Cl)c3)C2)nc2c1NC(=O)[C@H](C)N2C` [Compound 366, (7S)-2-((cis-3-(((5-chloropyridin-3-yl)oxy)methyl)cyclobutyl)amino)-4,7,8-trimethyl-7,8-dihydropteridin-6(5H)-one], less than 0.3 µM; to `Cc1nc(N[C@H]2C[C@@H](COc3cnc(Cl)c(F)c3)C2)nc2c1NC(=O)[C@H](C)N2C` [Compound 367, (7S)-2-((cis-3-(((6-chloro-5-fluoropyridin-3-yl)oxy)methyl)cyclobutyl)amino)-4,7,8-trimethyl-7,8-dihydropteridin-6(5H)-one], less than 0.3 µM.
On the same count and under the same terms, as for `Cc1nc(N[C@H]2C[C@H](COc3cc(C(F)(F)F)ccn3)C2)nc2c1NC(=O)[C@H](C)N2C` [Compound 369, (7S)-4,7,8-trimethyl-2-((trans-3-(((4-(trifluoromethyl)pyridin-2-yl)oxy)methyl)cyclobutyl)amino)-7,8-dihydropteridin-6(5H)-one], the figure is no less than 5 µM; as for `COc1cc(O[C@H]2C[C@H](Nc3nc(C)c4c(n3)N(C)[C@@H](C)C(=O)N4)C2)ccc1F` [Compound 370, (7S)-2-((trans-3-(4-fluoro-3-methoxyphenoxy)cyclobutyl)amino)-4,7,8-trimethyl-7,8-dihydropteridin-6(5H)-one], less than 0.3 µM.
Turning to `Cc1nc(N[C@H]2CCN(Cc3ccccc3)C2)nc2c1NC(=O)[C@H](C)N2C` [Compound 371, (7S)-2-(((S)-1-benzylpyrrolidin-3-yl)amino)-4,7,8-trimethyl-7,8-dihydropteridin-6(5H)-one], the IC50 under setting [1] is no less than 5 µM.
`Cc1nc(N[C@@H]2CCN(Cc3ccccc3)C2)nc2c1NC(=O)[C@H](C)N2C` [Compound 372, (7S)-2-(((R)-1-benzylpyrrolidin-3-yl)amino)-4,7,8-trimethyl-7,8-dihydropteridin-6(5H)-one]: the IC50 under setting [1] is no less than 5 µM.
Same read-out and setting: as for `COc1cc(O[C@H]2C[C@H](Nc3nc(C)c4c(n3)N(C)[C@@H](C)C(=O)N4C)C2)ccc1F` [Compound 373, (7S)-2-((trans-3-(4-fluoro-3-methoxyphenoxy)cyclobutyl)amino)-4,5,7,8-tetramethyl-7,8-dihydropteridin-6(5H)-one], the figure is 0.3 to 1 µM; as for `Cc1nc(N[C@H]2CCN(Cc3ccc(F)cc3)C2)nc2c1NC(=O)[C@H](C)N2C` [Compound 374, (7S)-2-(((S)-1-(4-fluorobenzyl)pyrrolidin-3-yl)amino)-4,7,8-trimethyl-7,8-dihydropteridin-6(5H)-one], no less than 5 µM; as for `Cc1nc(N[C@H]2C[C@H](Oc3cc(F)c(F)c(F)c3)C2)nc2c1N(CCF)C(=O)[C@H](C)N2C` [Compound 381, (7S)-5-(2-fluoroethyl)-4,7,8-trimethyl-2-((trans-3-(3,4,5-trifluorophenoxy)-cyclobutyl)-amino)-7,8-dihydropteridin-6(5H)-one], 0.3 to 1 µM.
For `Cc1nc(NCc2cnn(C(C)c3ccc(F)cc3)c2)nc2c1NC(=O)[C@H](C)N2C` (stereo partly drawn) [Compound 382, (7S)-2-(((1-(1-(4-fluorophenyl)ethyl)-1H-pyrazol-4-yl)methyl)amino)-4,7,8-trimethyl-7,8-dihydropteridin-6(5H)-one], the IC50 under setting [1] was less than 0.3 µM.
With `C=C(C)c1nc(C(F)(F)F)ccc1Cn1cc(CNc2nc(C)c3c(n2)N(C)[C@@H](C)C(=O)N3)cn1` [Compound 387, (7S)-4,7,8-Trimethyl-2-(((1-((2-(prop-1-en-2-yl)-6-(trifluoromethyl)pyridin-3-yl)methyl)-1H-pyrazol-4-yl)methyl)amino)-7,8-dihydropteridin-6(5H)-one], the IC50 under setting [1] is less than 0.3 µM.
On to `CC[C@H]1C(=O)Nc2c(C)nc(NCc3cnn(Cc4ccc(F)nc4)c3)nc2N1C` [Compound 389, (7S)-7-Ethyl-2-(((1-((6-fluoropyridin-3-yl)methyl)-1H-pyrazol-4-yl)methyl)amino)-4,8-dimethyl-7,8-dihydropteridin-6(5H)-one], for which the IC50 under setting [1] is less than 0.3 µM.
`Cc1nc(NCc2cnn(Cc3ccc(OCC(F)(F)F)nc3)c2)nc2c1NC(=O)[C@H](C)N2C` [Compound 390, (7S)-4,7,8-trimethyl-2-(((1-((6-(2,2,2-trifluoroethoxy)pyridin-3-yl)methyl)-1H-pyrazol-4-yl)methyl)amino)-7,8-dihydropteridin-6(5H)-one]: the IC50 under setting [1] was less than 0.3 µM.
For `CC[C@H]1C(=O)Nc2c(C)nc(NCc3cnn(Cc4cnc(F)c(OC)c4)c3)nc2N1C` [Compound 394, (7S)-7-Ethyl-2-(((1-((6-fluoro-5-methoxypyridin-3-yl)methyl)-1H-pyrazol-4-yl)methyl)amino)-4,8-dimethyl-7,8-dihydropteridin-6(5H)-one], the IC50 under setting [1] is less than 0.3 µM.
For the molecule `[2H]C([2H])([2H])N1c2nc(NCc3cnn(Cc4ccc(C(F)(F)F)nc4)c3)nc(C)c2NC(=O)[C@@H]1C` [Compound 400, (7S)-4,7-dimethyl-8-(methyl-d3)-2-(((1-((6-(trifluoromethyl)pyridin-3-yl)methyl)-1H-pyrazol-4-yl)methyl)amino)-7,8-dihydropteridin-6(5H)-one], under setting [2], the IC50 was less than 0.3 µM.
With `Cc1nc(N(Cc2cnn(Cc3ccc(C(F)(F)F)nc3)c2)C(=O)NC2CCCCC2)nc2c1NC(=O)[C@H](C)N2C` [Compound 401, (7S)-3-cyclohexyl-1-((1-((6-(trifluoromethyl)pyridin-3-yl)methyl)-1H-pyrazol-4-yl)methyl)-1-(4,7,8-trimethyl-6-oxo-5,6,7,8-tetrahydropteridin-2-yl)urea], the IC50 under setting [2] is no less than 5 µM.
As to `Cc1nc(N(Cc2cnn(Cc3ccc(C(F)(F)F)nc3)c2)C(=O)[C@@H](N)C(C)C)nc2c1NC(=O)[C@H](C)N2C` [Compound 402, (S)-2-amino-3-methyl-N-((1-((6-(trifluoromethyl)pyridin-3-yl)methyl)-1H-pyrazol-4-yl)methyl)-N-((S)-4,7,8-trimethyl-6-oxo-5,6,7,8-tetrahydropteridin-2-yl)butanamide], the IC50 under setting [2] was no less than 5 µM.
In the case of `CC(=O)NCCCC[C@H](N)C(=O)N(Cc1cnn(Cc2ccc(C(F)(F)F)nc2)c1)c1nc(C)c2c(n1)N(C)[C@@H](C)C(=O)N2` [Compound 404, (7S)-6-acetamido-2-amino-N-((1-((6-(trifluoromethyl)pyridin-3-yl)methyl)-1H-pyrazol-4-yl)methyl)-N-((S)-4,7,8-trimethyl-6-oxo-5,6,7,8-tetrahydropteridin-2-yl)hexanamide], the IC50 (Colo 205 cells with stably transfected TCF/LEF luciferase reporter, read-out: TCF reporter Colo205) is no less than 5 µM.
For the molecule `Cc1nc(N(Cc2cnn(Cc3ccc(C(F)(F)F)nc3)c2)C(=O)CN)nc2c1NC(=O)[C@H](C)N2C` [Compound 406, (7S)-2-amino-N-((1-((6-(trifluoromethyl)pyridin-3-yl)methyl)-1H-pyrazol-4-yl)methyl)-N-(4,7,8-trimethyl-6-oxo-5,6,7,8-tetrahydropteridin-2-yl)acetamide], under setting [2], the IC50 is no less than 5 µM.
The same measure, in the same setting: as for `COC(=O)N(Cc1cnn(Cc2ccc(C(F)(F)F)nc2)c1)c1nc(C)c2c(n1)N(C)[C@@H](C)C(=O)N2` [Compound 407, methyl (7S)-((1-((6-(trifluoromethyl)pyridin-3-yl)methyl)-1H-pyrazol-4-yl)methyl)(4,7,8-trimethyl-6-oxo-5,6,7,8-tetrahydropteridin-2-yl)carbamate], the figure is no less than 5 µM; as for `Cc1nc(N(Cc2cnn(Cc3ccc(C(F)(F)F)nc3)c2)C(=O)OC(C)OC(=O)C(C)C)nc2c1NC(=O)[C@H](C)N2C` (stereo partly drawn) [Compound 408, 1-((((1-((6-(trifluoromethyl)pyridin-3-yl)methyl)-1H-pyrazol-4-yl)methyl)((7S)-4,7,8-trimethyl-6-oxo-5,6,7,8-tetrahydropteridin-2-yl)carbamoyl)oxy)ethyl isobutyrate], less than 0.3 µM.
Consider `CC(=O)c1nc(C(F)(F)F)ccc1Cn1cc(CNc2nc(C)c3c(n2)N(C)[C@@H](C)C(=O)N3)cn1` [Compound 413, (7S)-2-(((1-((2-acetyl-6-(trifluoromethyl)pyridin-3-yl)methyl)-1H-pyrazol-4-yl)methyl)amino)-4,7,8-trimethyl-7,8-dihydropteridin-6(5H)-one], for which the IC50 under setting [1] was less than 0.3 µM.
